# Assay results as given in patent US20070128217A1 (priority 2003, published 2007).
# How the values were obtained:
# [1] = system: antibodies in sera from SARS patients (sera 1a, 1b, 2, 6, 37, 62, London, SARS-yellow, SARS-green); format: binding, human; parameters: Binding of serum 6 to linear peptides of protein X1 of SARS-CoV Urbani / Binding of serum 37 to linear peptides of protein X1 of SARS-CoV Urbani / Binding of serum 6 to looped/cyclic peptide (PEPSCAN-ELISA) / Binding of serum 37 to looped/cyclic peptide (PEPSCAN-ELISA) / Binding of serum 37 to looped/cyclic peptides of protein X1 of SARS-CoV Urbani / Binding of serum 6 to linear peptides of protein X2 / Binding of serum 37 to linear peptides of protein X2 / Binding of serum 37 to looped/cyclic peptides of protein X2 of SARS-CoV Urbani / Binding of serum 6 to linear peptides of protein M of SARS-CoV Urbani / Binding of serum 37 to linear peptides of protein M of SARS-CoV Urbani / Binding of serum 6 to looped/cyclic peptides of protein M of SARS-CoV Urbani / Binding of serum 37 to looped/cyclic peptides of protein M of SARS-CoV Urbani / Binding of serum 6 to linear peptides of protein X3 of SARS-CoV Urbani / Binding of serum 37 to linear peptides of protein X3 of SARS-CoV Urbani / Binding of serum 37 to looped/cyclic peptides of protein X3 of SARS-CoV Urbani / Binding of serum 6 to linear peptides of protein X4 of SARS-CoV Urbani / Binding of serum 37 to linear peptides of protein X4 of SARS-CoV Urbani / Binding of serum 37 to looped/cyclic peptides of protein X4 of SARS-CoV Urbani / Binding of serum 6 to linear peptides of protein X5 of SARS-CoV Urbani / Binding of serum 37 to linear peptides of protein X5 of SARS-CoV Urbani / Binding of serum 37 to looped/cyclic peptides of protein X5 of SARS-CoV Urbani / Binding of serum 6 to linear peptides of protein N of SARS-CoV Urbani / Binding of serum 37 to linear peptides of protein N of SARS-CoV Urbani / Binding of serum 6 to linear peptide (PEPSCAN-ELISA) / Binding of serum 1a to looped/cyclic peptides of protein N of SARS-CoV Urbani / Binding of serum 1b to looped/cyclic peptides of protein N of SARS-CoV Urbani / Binding of serum 2 to looped/cyclic peptides of protein N of SARS-CoV Urbani / Binding of serum 6 to looped/cyclic peptides of protein N of SARS-CoV Urbani / Binding of serum 37 to looped/cyclic peptides of protein N of SARS-CoV Urbani / Binding of serum 62 to looped/cyclic peptides of protein N of SARS-CoV Urbani / Binding of serum London to looped/cyclic peptides of protein N of SARS-CoV Urbani / Binding of serum SARS-green to looped/cyclic peptides of protein N of SARS-CoV Urbani: unit not given here
# [2] = system: control sera (pooled serum of ten healthy LUMC hospital workers; commercial negative donor pooled serum from the Dutch bloodbank); format: binding, human; parameters: Binding of Control serum LUMC to linear peptides / Binding of Control serum Blood-bank to linear peptides / Binding of Control serum LUMC to looped peptides / Binding of Control Serum Blood-Bank to Looped peptides / Binding of Control serum LUMC to linear peptides of the protein M of SARS-CoV Urbani / Binding of Control serum Blood-bank to linear peptides of the protein M of SARS-CoV Urbani / Binding of Control serum LUMC to looped peptides of the protein M of SARS-CoV Urbani / Binding of Control Serum Blood-Bank to Looped peptides of the protein M of SARS-CoV Urbani: unit not given here
# [3] = system: rabbit serum obtained by immunizing a rabbit with the SARS-CoV strain Frankfurt 1; format: binding; parameters: Binding of a rabbit serum to linear peptides / Binding of a rabbit serum to looped peptides / Rabbit serum linear peptides / Rabbit serum looped peptides / Binding of a rabbit serum to linear peptides of protein N of SARS-CoV Urbani (Rabbit serum linear peptides) / Binding of a rabbit serum to looped/cyclic peptides of protein N of SARS-CoV Urbani (Rabbit serum looped peptides): unit not given here
sequence,measurement,setting,value
TSTHFAFACADGTRH,Binding of serum 1a to linear peptides of protein X4 of SARS-CoV Urbani,[1],0.7
same,Binding of serum 1a to looped/cyclic peptides of protein X4 of SARS-CoV Urbani,[1],0.8
same,Binding of serum 1b to linear peptides of protein X4 of SARS-CoV Urbani,[1],0.6
same,Binding of serum 1b to looped/cyclic peptides of protein X4 of SARS-CoV Urbani,[1],0.7
same,Binding of serum 2 to linear peptides of protein X4 of SARS-CoV Urbani,[1],0.5
same,Binding of serum 2 to looped/cyclic peptides of protein X4 of SARS-CoV Urbani,[1],0.6
same,Binding of serum 6 to linear peptides of protein X4 of SARS-CoV Urbani,[1],0.7
same,Binding of serum 6 to looped/cyclic peptides of protein X4 of SARS-CoV Urbani,[1],0.7
same,Binding of serum 37 to linear peptides of protein X4 of SARS-CoV Urbani,[1],0.7
same,Binding of serum 37 to looped/cyclic peptides of protein X4 of SARS-CoV Urbani,[1],0.7
same,Binding of serum 62 to linear peptides of protein X4 of SARS-CoV Urbani,[1],0.8
same,Binding of serum 62 to looped/cyclic peptides of protein X4 of SARS-CoV Urbani,[1],0.8
same,Binding of serum London to linear peptides of protein X4 of SARS-CoV Urbani,[1],0.8
same,Binding of serum London to looped/cyclic peptides of protein X4 of SARS-CoV Urbani,[1],0.4
same,Binding of serum SARS-green to linear peptides of protein X4 of SARS-CoV Urbani,[1],0.6
same,Binding of serum SARS-green to looped/cyclic peptides of protein X4 of SARS-CoV Urbani,[1],0.6
same,Binding of serum SARS-yellow to linear peptides of protein X4 of SARS-CoV Urbani,[1],0.2
same,Binding of serum SARS-yellow to looped/cyclic peptides of protein X4 of SARS-CoV Urbani,[1],0.7
same,Binding of Control Serum Blood-Bank to Looped peptides,[2],0.8
same,Binding of Control serum Blood-bank to linear peptides,[2],0.7
same,Binding of Control serum LUMC to linear peptides,[2],0.8
same,Binding of Control serum LUMC to looped peptides,[2],0.8
same,Rabbit serum linear peptides,[3],0.5
same,Rabbit serum looped peptides,[3],0.7
KLVFLWLLWPVTLAC,Binding of serum 1a to linear peptides of protein M of SARS-CoV Urbani,[1],0.7
same,Binding of serum 1a to looped/cyclic peptides of protein M of SARS-CoV Urbani,[1],0.6
same,Binding of serum 1b to linear peptides of protein M of SARS-CoV Urbani,[1],0.6
same,Binding of serum 1b to looped/cyclic peptides of protein M of SARS-CoV Urbani,[1],0.2
same,Binding of serum 2 to linear peptides of protein M of SARS-CoV Urbani,[1],0.5
same,Binding of serum 2 to looped/cyclic peptides of protein M of SARS-CoV Urbani,[1],0.6
same,Binding of serum 6 to linear peptides of protein M of SARS-CoV Urbani,[1],0.4
same,Binding of serum 6 to looped/cyclic peptides of protein M of SARS-CoV Urbani,[1],0.7
same,Binding of serum 37 to linear peptides of protein M of SARS-CoV Urbani,[1],0.5
same,Binding of serum 37 to looped/cyclic peptides of protein M of SARS-CoV Urbani,[1],0.6
same,Binding of serum 62 to linear peptides of protein M of SARS-CoV Urbani,[1],0.5
same,Binding of serum 62 to looped/cyclic peptides of protein M of SARS-CoV Urbani,[1],0.6
same,Binding of serum London to linear peptides of protein M of SARS-CoV Urbani,[1],0.4
same,Binding of serum London to looped/cyclic peptides of protein M of SARS-CoV Urbani,[1],0.2
same,Binding of serum SARS-green to linear peptides of protein M of SARS-CoV Urbani,[1],0.4
same,Binding of serum SARS-green to looped/cyclic peptides of protein M of SARS-CoV Urbani,[1],0.3
same,Binding of serum SARS-yellow to linear peptides of protein M of SARS-CoV Urbani,[1],0.2
same,Binding of serum SARS-yellow to looped/cyclic peptides of protein M of SARS-CoV Urbani,[1],0.5
same,Binding of Control Serum Blood-Bank to Looped peptides of the protein M of SARS-CoV Urbani,[2],0.7
same,Binding of Control serum Blood-bank to linear peptides of the protein M of SARS-CoV Urbani,[2],0.7
same,Binding of Control serum LUMC to linear peptides of the protein M of SARS-CoV Urbani,[2],0.5
same,Binding of Control serum LUMC to looped peptides of the protein M of SARS-CoV Urbani,[2],0.6
same,Rabbit serum linear peptides,[3],0.1
same,Rabbit serum looped peptides,[3],0.0
